ChEMBL document CHEMBL1201862, “PubChem BioAssay data set” (2004)
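Where inhibition never reached the appropriate level, the endpoint shown equals the highest concentration tested. Otherwise, values were interpolated linearly from a five-concentration, 48-hour dose response in 96-well plates. The concentration for 50% growth inhibition is given as GI50.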 Calls of active or inactive are those of the source. Cut-off read from the data, not from the text of the source: active = GI50 up to about 1.1 µM and inactive = higher.

Experiments:
Experiment in all cases: growth of human tumour cells (NCI), 48 h
A498 = system: A498
COLO 205 = system: COLO 205
EKVX = system: EKVX
HT-29 = system: HT-29
IGROV-1 = system: IGROV-1
K562 = system: K562
NCI-H23 = system: NCI-H23
OVCAR-3 = system: OVCAR-3
OVCAR-5 = system: OVCAR-5
OVCAR-8 = system: OVCAR-8
SF-295 = system: SF-295
SR = system: SR
TK-10 = system: TK-10
UACC-62 = system: UACC-62
HCT-116 = system: HCT-116
HOP-62 = system: HOP-62
HOP-92 = system: HOP-92
NCI-H522 = system: NCI-H522
PC-3 = system: PC-3
MCF7 = system: MCF7

SMILES | GI50 (A498) | GI50 (COLO 205) | GI50 (EKVX) | GI50 (HT-29) | GI50 (IGROV-1) | GI50 (K562) | GI50 (NCI-H23) | GI50 (OVCAR-3) | GI50 (OVCAR-5) | GI50 (OVCAR-8) | GI50 (SF-295) | GI50 (SR) | GI50 (TK-10) | GI50 (UACC-62) | GI50 (HCT-116) | GI50 (HOP-62) | GI50 (HOP-92) | GI50 (NCI-H522) | GI50 (PC-3) | GI50 (MCF7)
O=C1C=C(c2[nH]c3ccccc3c2C2=CC(=O)c3ccccc3C2=O)C(=O)c2ccccc21 | > 100 µM (inactive) | > 100 µM (inactive) | 46.5 µM (inactive) | > 100 µM (inactive) | 30.1 µM (inactive) | 22.3 µM (inactive) | 41.3 µM (inactive) | 21.6 µM (inactive) | > 100 µM (inactive) | 43.8 µM (inactive) | 36.1 µM (inactive) | 20.6 µM (inactive) | 94.4 µM (inactive) | 24.9 µM (inactive) | – | – | – | – | – | –
C=C1[C@@H]2CCC(C)(C)[C@H]1CCC(=O)[C@@H]2C(=O)OC | > 100 µM (inactive) | > 100 µM (inactive) | > 100 µM (inactive) | > 100 µM (inactive) | > 100 µM (inactive) | > 100 µM (inactive) | > 100 µM (inactive) | > 100 µM (inactive) | – | > 100 µM (inactive) | > 100 µM (inactive) | > 100 µM (inactive) | > 100 µM (inactive) | > 100 µM (inactive) | > 100 µM (inactive) | > 100 µM (inactive) | – | – | – | –
CC(C)=CC1(C)/C(=N\O)C(C)(CC(C)C)C(=O)N1O (centres undefined) | > 100 µM (inactive) | > 100 µM (inactive) | > 100 µM (inactive) | > 100 µM (inactive) | > 100 µM (inactive) | > 100 µM (inactive) | > 100 µM (inactive) | > 100 µM (inactive) | > 100 µM (inactive) | > 100 µM (inactive) | > 100 µM (inactive) | > 100 µM (inactive) | > 100 µM (inactive) | > 100 µM (inactive) | > 100 µM (inactive) | > 100 µM (inactive) | > 100 µM (inactive) | > 100 µM (inactive) | – | –
O=C(c1nc2ccc(Cl)cc2[nH]c1=O)C(O)c1cccc([N+](=O)[O-])c1 (centres undefined) | > 100 µM (inactive) | > 100 µM (inactive) | > 100 µM (inactive) | 16.3 µM (inactive) | > 100 µM (inactive) | 28.6 µM (inactive) | > 100 µM (inactive) | > 100 µM (inactive) | > 100 µM (inactive) | > 100 µM (inactive) | > 100 µM (inactive) | 85.7 µM (inactive) | > 100 µM (inactive) | 67.6 µM (inactive) | > 100 µM (inactive) | > 100 µM (inactive) | > 100 µM (inactive) | 16.2 µM (inactive) | – | –
CCC(=O)CC(=O)CCC(=O)Nc1cc(C)ccc1C | > 100 µM (inactive) | – | > 100 µM (inactive) | > 100 µM (inactive) | > 100 µM (inactive) | > 100 µM (inactive) | > 100 µM (inactive) | > 100 µM (inactive) | – | > 100 µM (inactive) | > 100 µM (inactive) | > 100 µM (inactive) | > 100 µM (inactive) | > 100 µM (inactive) | > 100 µM (inactive) | – | > 100 µM (inactive) | > 100 µM (inactive) | – | –
N=c1c2ccccc2nc2oc3ccc(Cl)cc3n12 | – | 29.4 µM (inactive) | 15.6 µM (inactive) | 20.3 µM (inactive) | 16.4 µM (inactive) | 9.2 µM (inactive) | 14.1 µM (inactive) | 13.9 µM (inactive) | 19.8 µM (inactive) | 9.66 µM (inactive) | 12.8 µM (inactive) | 31.9 µM (inactive) | 20 µM (inactive) | 37.7 µM (inactive) | 10.6 µM (inactive) | 5.81 µM (inactive) | – | 17.3 µM (inactive) | 33.1 µM (inactive) | –
O=C(NC1C=CCC2C(=O)N(c3ccccc3)C(=O)C12)OCc1ccccc1 (centres undefined) | – | > 100 µM (inactive) | > 100 µM (inactive) | > 100 µM (inactive) | > 100 µM (inactive) | > 100 µM (inactive) | > 100 µM (inactive) | > 100 µM (inactive) | 97.3 µM (inactive) | > 100 µM (inactive) | > 100 µM (inactive) | > 100 µM (inactive) | > 100 µM (inactive) | > 100 µM (inactive) | > 100 µM (inactive) | > 100 µM (inactive) | > 100 µM (inactive) | > 100 µM (inactive) | – | –
CC(C)=CCC/C(C)=C/CC/C(C)=C/[C@@H]1[C@@H](CO)[C@]1(C)CC/C=C(\C)CCC=C(C)C | > 100 µM (inactive) | 63.1 µM (inactive) | 20.2 µM (inactive) | 42.8 µM (inactive) | 12.5 µM (inactive) | 31.3 µM (inactive) | 32 µM (inactive) | 52.5 µM (inactive) | 49.4 µM (inactive) | 17.1 µM (inactive) | 60.8 µM (inactive) | 19.6 µM (inactive) | 55.2 µM (inactive) | – | 31.2 µM (inactive) | 69.7 µM (inactive) | 16.6 µM (inactive) | 17.1 µM (inactive) | 23.9 µM (inactive) | –
O=C(N/C(=C\c1cc(Cl)ccc1Cl)c1nc2cc(Cl)ccc2[nH]1)c1ccccc1 | 21.4 µM (inactive) | 18.8 µM (inactive) | 23 µM (inactive) | 16.4 µM (inactive) | 13.1 µM (inactive) | 15.5 µM (inactive) | 13 µM (inactive) | 15.2 µM (inactive) | 21.2 µM (inactive) | 16.1 µM (inactive) | 16.1 µM (inactive) | 5.43 µM (inactive) | 3.78 µM (inactive) | 11.4 µM (inactive) | 10.5 µM (inactive) | 18 µM (inactive) | 11.6 µM (inactive) | 12.4 µM (inactive) | – | –
COc1ccc(Cc2c(N)[nH]c(=O)[nH]c2=O)cc1 | > 100 µM (inactive) | > 100 µM (inactive) | > 100 µM (inactive) | > 100 µM (inactive) | > 100 µM (inactive) | > 100 µM (inactive) | > 100 µM (inactive) | > 100 µM (inactive) | > 100 µM (inactive) | > 100 µM (inactive) | > 100 µM (inactive) | – | > 100 µM (inactive) | > 100 µM (inactive) | > 100 µM (inactive) | > 100 µM (inactive) | 33.3 µM (inactive) | > 100 µM (inactive) | > 100 µM (inactive) | –
CC1(C)CC(=O)C(=CNC(=S)c2ccccc2)C(=O)C1 | – | > 100 µM (inactive) | > 100 µM (inactive) | > 100 µM (inactive) | > 100 µM (inactive) | – | > 100 µM (inactive) | > 100 µM (inactive) | > 100 µM (inactive) | > 100 µM (inactive) | > 100 µM (inactive) | – | > 100 µM (inactive) | > 100 µM (inactive) | > 100 µM (inactive) | > 100 µM (inactive) | > 100 µM (inactive) | > 100 µM (inactive) | > 100 µM (inactive) | > 100 µM (inactive)
C/C(=N\NS(=O)(=O)c1ccc(C)cc1)c1cc2ccccc2n1C | > 100 µM (inactive) | > 100 µM (inactive) | 74.3 µM (inactive) | 76 µM (inactive) | > 100 µM (inactive) | > 100 µM (inactive) | > 100 µM (inactive) | – | – | > 100 µM (inactive) | > 100 µM (inactive) | > 100 µM (inactive) | – | 76.2 µM (inactive) | > 100 µM (inactive) | > 100 µM (inactive) | – | > 100 µM (inactive) | – | –
O=C(O)C1=Cc2cccc3cccc(c23)C1=O | 24.3 µM (inactive) | > 100 µM (inactive) | > 100 µM (inactive) | > 100 µM (inactive) | > 100 µM (inactive) | > 100 µM (inactive) | > 100 µM (inactive) | > 100 µM (inactive) | > 100 µM (inactive) | > 100 µM (inactive) | > 100 µM (inactive) | > 100 µM (inactive) | > 100 µM (inactive) | > 100 µM (inactive) | > 100 µM (inactive) | > 100 µM (inactive) | – | > 100 µM (inactive) | – | –
COC(=O)[C@@]12OC[C@]34C([C@@H](O)C1O)[C@@]1(C)CC(=O)C(OC(=O)CC(C)C(F)(F)F)=C(C)C1C[C@H]3OC(=O)[C@H](O)[C@H]42 (some centres undefined) | 0.156 µM (active) | 6.81 µM (inactive) | 26.5 µM (inactive) | 6.92 µM (inactive) | 2.22 µM (inactive) | 6.05 µM (inactive) | 1.38 µM (inactive) | – | 19.6 µM (inactive) | 4.71 µM (inactive) | 5.16 µM (inactive) | 2.73 µM (inactive) | 5.51 µM (inactive) | 1.12 µM (active) | 2.47 µM (inactive) | 15 µM (inactive) | 0.887 µM (active) | 3.46 µM (inactive) | – | –
CCCCCCCCCCCCCCCCOCC(CP(=O)([O-])OCC[n+]1ccccc1)OC (centres undefined) | 11.3 µM (inactive) | 6.46 µM (inactive) | 16.5 µM (inactive) | 4.21 µM (inactive) | 3.84 µM (inactive) | 17.1 µM (inactive) | 4.05 µM (inactive) | 12.6 µM (inactive) | – | 14.7 µM (inactive) | 4.38 µM (inactive) | 3.5 µM (inactive) | 2.9 µM (inactive) | 11.3 µM (inactive) | 9.66 µM (inactive) | 11.6 µM (inactive) | 2.28 µM (inactive) | 17.3 µM (inactive) | – | –
CCOC(C)C(/C=N/NC(N)=S)=NNC(N)=S (centres undefined) [GLOXAZONE] | 21.9 µM (inactive) | > 100 µM (inactive) | 0.248 µM (active) | – | – | < 0.0195 µM (active) | > 100 µM (inactive) | – | > 100 µM (inactive) | > 100 µM (inactive) | 1.64 µM (inactive) | < 0.0251 µM (active) | > 100 µM (inactive) | > 100 µM (inactive) | – | > 100 µM (inactive) | 46.1 µM (inactive) | 26.2 µM (inactive) | – | –
